In PubChem BioAssay (NCI):
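1) Cells in 96-well plates. 2) Compound, 48 h, 5 concentrations. 3) Linear interpolation between surrounding doses. 4) Unreached endpoint = highest concentration. GI50 is the concentration that inhibits growth by half. The concentration for full growth arrest is given as TGI.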

What was measured:
Test in all cases: growth of human tumour cells (NCI), 48 h
T-47D breast = test system: T-47D breast
RXF 393 renal = test system: RXF 393 renal
ACHN renal = test system: ACHN renal
CAKI-1 renal = test system: CAKI-1 renal
SK-MEL-28 melanoma = test system: SK-MEL-28 melanoma
SK-MEL-2 melanoma = test system: SK-MEL-2 melanoma
SK-OV-3 ovarian = test system: SK-OV-3 ovarian
HL-60(TB) leukemia = test system: HL-60(TB) leukemia

Compound | GI50 (T-47D breast) [µM] | TGI (T-47D breast) [µM] | GI50 (RXF 393 renal) [µM] | TGI (RXF 393 renal) [µM] | GI50 (ACHN renal) [µM] | TGI (ACHN renal) [µM] | GI50 (CAKI-1 renal) [µM] | TGI (CAKI-1 renal) [µM] | GI50 (SK-MEL-28 melanoma) [µM] | TGI (SK-MEL-28 melanoma) [µM] | GI50 (SK-MEL-2 melanoma) [µM] | TGI (SK-MEL-2 melanoma) [µM] | GI50 (SK-OV-3 ovarian) [µM] | TGI (SK-OV-3 ovarian) [µM] | GI50 (HL-60(TB) leukemia) [µM] | TGI (HL-60(TB) leukemia) [µM]
CS(=O)(=O)N(c1cc(-c2ccc3ncnc(Nc4cccc(Cl)c4)c3c2)cnc1Cl)S(C)(=O)=O | 0.043 | 0.618 | 0.231 | 0.91 | 0.412 | > 100 | 0.281 | 2.08 | 0.306 | 11.1 | 0.469 | 2.09 | 0.316 | 1.81 | 0.284 | 6.48
COc1ccc(Cn2cc3c(c2-c2cc(OC)c(OC)c(OC)c2)CCc2cnoc2-3)cc1 | 0.82 | > 100 | 0.26 | > 100 | 0.849 | > 100 | 0.334 | > 100 | 0.517 | > 100 | 3.24 | > 100 | 0.365 | > 100 | 0.204 | 0.647
Cn1cc(C2=C(N3CCOCC3)C(=O)NC2=O)c2ccccc21 | > 25 | > 25 | > 25 | > 25 | > 25 | > 25 | > 25 | > 25 | > 25 | > 25 | > 25 | > 25 | > 25 | > 25 | > 25 | > 25
CCCCCCCCCCCCCCCC1=NC(C)(C)CN1C(C)C | 1.93 | 4.54 | 1.52 | 2.96 | 1.52 | 2.84 | 1.13 | 2.53 | 1.64 | 3 | 1.63 | 3.07 | 1.85 | 3.57 | 0.91 | 2.4
O=C(/C=C\c1ccccc1)N1CCc2ccccc2C1 |  | > 100 |  | > 100 |  | > 100 |  | > 100 |  | > 100 |  | 91.3 |  | > 100 |  | 83.6
Cc1cccc(Cc2cnc(NC(=O)CCc3ccc(C)o3)s2)c1 | 0.427 | > 100 | 0.204 | 3.71 | 0.526 | > 100 | 0.235 | 50.8 | 2.06 | > 100 | 0.404 | > 100 | 0.419 | > 100 | 0.161 | 0.44
Oc1ccc(Cc2cc(Cl)cc(Cl)c2O)cc1Cl |  | 44.5 |  | 28.8 |  | 31.2 |  | 51.5 |  | 32.9 |  | 29.7 |  | 60.5 |  | 3.36
CCN(Cc1c(Cl)cccc1Cl)c1ccc(CO)c(Cl)c1 | < 0.017 | 0.18 | 7.16 | 24.7 | 14.2 | 27.3 | 4.23 | 21.9 | 11.9 | 25.5 | 0.795 | 13.4 | 9.84 | 22.3 | 8.17 | 25.7
CC(=O)c1cc(O)c2ccccc2c1O | 17.4 | 41.4 | 19.5 | 33.8 | 16.9 | 32.5 | 15.5 | 30.2 | 22.9 | 44.5 | 20.4 | 38.7 | > 100 | > 100 | 25.5 | 62.5
O=C(O)C(Oc1nc(=S)[nH]c(=S)[nH]1)(c1ccc(Cl)cc1)c1ccc(Cl)cc1 |  | > 100 |  | > 100 |  | > 100 |  | > 100 |  | > 100 |  | > 100 |  | > 100 |  | > 100
Nc1ncc(-c2cccc(S(N)(=O)=O)c2)c2scc(-c3ccc(F)c(Cl)c3)c12 | 3.59 | 11 | 3.79 | 9.43 | 6.36 | > 25 | 5.51 | 21.4 | 8.8 | > 23.3 | 5.88 | 10.9 | 5.14 | > 17.6 | 4.76 | 11.7
O=c1oc2c(C(F)(F)F)cccc2cc1-c1csc(Nc2ccc(OCCF)cc2)n1 | 0.0797 | > 100 | 0.0343 | 18.2 | 0.0609 | 13.5 | 0.0521 | > 34.7 | 1.32 | > 66.4 | 0.0593 | > 39.9 | 0.041 | 23.2 | 0.0248 | 0.0573
Cc1coc2c1C(OC(=O)C(C)C)C1(C)C(C)CCC(O)C1C2=O (stereo not given) |  | > 100 |  | > 100 |  | > 100 |  | > 100 |  | > 100 |  | > 100 |  | > 100 |  | > 100
CC(O)c1cc(C(=O)N[C@@H](C)Cn2ccc(-c3ccc(C#N)c(Cl)c3)n2)n[nH]1 (stereo not given in full) | 13.2 | 87.8 | > 100 | > 100 | 82.5 | > 100 | 44.9 | > 100 | 72.8 | > 100 | 46.6 | > 100 | > 100 | > 100 | 0.0272 | 0.24
Cc1c([N+](=O)[O-])oc2ccc3ccccc3c12 |  | > 100 |  | > 100 |  | > 100 |  | > 100 |  | > 100 |  | > 100 |  | > 100 |  | > 100
CC(C)=CCCC(C)C1=C(O)C(=O)C(C)=CC1=O (stereo not given) |  | 3.92 |  | 17.8 |  | 3.98 |  | 15.1 |  | > 42.4 |  | 34 |  | 78.5 |  | 0.586
Oc1c(CN2CCN(c3ccccc3)CC2)cc(Br)c2cccnc12 |  | > 47.3 |  | 13.5 |  | > 34.4 |  | > 100 |  | > 100 |  | 42 |  | 26.8 |  | 3.81

Compound | GI50 (T-47D breast) [µM] | TGI (T-47D breast) [µM] | GI50 (RXF 393 renal) [µM] | TGI (RXF 393 renal) [µM] | GI50 (ACHN renal) [µM] | TGI (ACHN renal) [µM] | GI50 (CAKI-1 renal) [µM] | TGI (CAKI-1 renal) [µM] | GI50 (SK-MEL-28 melanoma) [µM] | TGI (SK-MEL-28 melanoma) [µM] | GI50 (SK-MEL-2 melanoma) [µM] | TGI (SK-MEL-2 melanoma) [µM] | GI50 (SK-OV-3 ovarian) [µM] | TGI (SK-OV-3 ovarian) [µM] | GI50 (HL-60(TB) leukemia) [µM] | TGI (HL-60(TB) leukemia) [µM]
C[C@@H]1COCCN1c1cc(C2(O)C[C@H]3CC[C@@H](C2)O3)c2cnn(-c3ccn[nH]3)c2n1 (stereo not given in full) | 0.122 | 0.734 | < 0.0161 | 0.0581 | 0.0316 | 0.353 | 0.0685 | 0.627 | 0.251 | 2.1 | 0.0304 | 0.202 | 0.0992 | 4.03 | 0.172 | 
C/C(=N\NC(=S)N(C)C)c1ccccn1 |  | 11.5 |  | 13.4 | 0.00151 | 1.74 | 0.0567 | 12.5 |  | 20.6 | 0.624 | 27.2 |  | 0.889 | 0.000325 | 
C=CC1=C(C)C2=NC1=CC1=NC(=C(CC)/C1=C\O)C=C1N=C3C(=C1C)C(=O)[C@H](C(=O)OC)C3=C1NC(=C2)[C@@H](C)[C@@H]1CCC(=O)O |  | > 100 |  | 13.3 |  | > 100 |  | > 100 |  | > 100 |  | > 100 |  | > 100 |  | 92.3
NC(=S)NN=C1CSSC1 | 4.31 | 29.1 | 1.45 | 5.58 | 3.05 | 31.7 | 3.61 | 40.3 | 4.67 | 25.9 | 3.23 | 18.9 | 5.25 | 25.1 | 0.516 | 6.81
CN(C)CCCn1c(-c2nonc2N)nc2cnccc21 | > 25 | > 25 | > 5.19 | > 25 | > 25 | > 25 | > 25 | > 25 | > 25 | > 25 | > 25 | > 25 | > 25 | > 25 | > 25 | > 25
CC(=C/c1ccccc1)/C=C1/NC(=S)N(/C=C2\C(=O)Oc3ccccc3C2=O)C1=O |  | > 100 |  | > 52.4 |  | > 100 | 59.7 | > 100 |  | > 100 |  | > 100 | > 100 | > 100 |  | > 100
COc1cc2c3c(n(C)c(=O)c2cc1OC)-c1cc2c(cc1/C3=C\CCNCCCN)OCO2 | 2.64 | 15.3 | 1.06 | 14.5 | 1.3 | 6.89 | 3.44 | 14.3 | 2.87 | 91.8 | 5.09 | > 100 | 2.73 | 11.7 | 0.927 | 8.03
O=Nc1c(-c2c(O)[nH]c3ccc(Br)cc23)[nH]c2ccccc12 | 12.1 | > 100 | 3.62 | > 100 | 2.25 | 7.69 | 3.44 | > 100 | 9.12 | > 100 | 2.65 | > 100 | 5.22 | 77.3 | 3.38 | 6.22
Cc1cc(C(=O)c2ccccc2)c(C)c2c1[nH]c1ccc(Cl)cc12 | 0.0447 | > 87.2 | 0.0235 | 0.0771 | 0.0669 | 15.5 | 0.0521 | 6.05 | 3.64 | 72.3 | 0.0829 | 29.2 | 0.35 | > 50.6 | 0.0398 | 1.78
CCN(CC)c1ccc(/C=C/C=C2\NC(=O)NC2=O)cc1 | 4 | > 100 | 1.03 | 5.93 | 7.24 | > 100 | 2.65 | > 100 | 27.1 | > 100 | 3.5 | 53.6 | 7.6 | > 100 | 3.06 | > 100
CC[C@H](C)C(=O)O[C@H]1C[C@H](O)C=C2C=C[C@H](C)[C@H](CC[C@@H](O)C[C@@H](O)CC(=O)O)[C@H]21 | > 100 | > 100 | > 100 | > 100 | > 100 | > 100 | > 100 | > 100 | > 100 | > 100 | > 100 | > 100 | > 100 | > 100 | > 100 | > 100
CC(=O)c1nc2ccccc2n1CC(=O)c1cccc(Cl)c1 | 0.881 | > 100 | 0.264 | 0.88 | 1.08 | > 100 | 2.78 | > 20.1 | 0.437 | > 54.3 | 0.505 | 98 | 1.27 | > 100 | 0.144 | 0.61
COc1c(B(O)O)cc(F)cc1-c1nc2ccc3[nH]ncc3c2c2c1CCCC2 | 2.62 | 8.99 | < 0.01 | 0.294 | 1.12 | 16.3 | < 0.01 | 0.134 | 2.69 | 8.47 | 2.67 | 7.05 | 1.13 | 13.9 | 0.112 | 10.5
C=CC(COC(c1ccccc1)(c1ccccc1)c1ccccc1)N(CC)CC (stereo not given) | 4.6 | 19.8 | 2.92 | 8.21 | 8.1 | 23.9 | 2.43 | 11.8 | 3.59 | 11.8 | 4.68 | 13.9 | 8.12 | 21.4 | 3.68 | 16.2
O=C(NC(=S)Nc1cc(Cl)ccc1O)c1cccc(Br)c1 | 3.71 | > 100 | 18.7 | 92.3 | 6.85 | > 100 | 4.34 | > 100 | 16.5 | > 100 | 12.1 | > 100 | 19.4 | > 100 | 7.12 | > 100
O=C(O)c1cc2ccccc2c2c1C(=O)c1ccccc1-2 |  | > 100 |  | > 100 |  | > 100 |  | > 100 |  | > 100 |  | > 100 |  | > 100 |  | > 100
CC1(C)C(=O)/C(=C\c2cccnc2)C[C@]2(C)[C@H]3CC[C@@H]4[C@@H](C(=O)/C=C/c5ccncc5)CC[C@@]4(C)[C@]3(C)CC[C@@H]12 | 1.6 | 9.54 | 1.72 | 3.18 | 1.75 | 3.36 | 2.51 | 6.46 | 1.98 | 3.97 | 1.93 | 4.38 | 4.86 | 18.9 | 1.78 | 6.35
